# Activity calls are given as the source filed them. No cut-off for these calls is given here.
# Legend:
# c-Myc/Max (Homo sapiens) [1] = target: T1, c-Myc/Max (Homo sapiens) (UniProt P01106+P61244); assay: Inhibition of dimerization of human MYC bHLH-LZ domain/MAX bHLH-LZ domain expressed in Escherichia coli in presence of Alexa Fluor 594-tagged E-box duplex DNA by fluorescence polarization assay
# [2] = target: Myc proto-oncogene protein (Homo sapiens) (UniProt P01106); assay: Inhibition of human ATG-Myc expressed in chicken embryo fibroblasts assessed as reduction in Myc-induced oncogenic transformation by measuring efficiency of oncogenic transformation at 10 uM
# [3] = target: Myc proto-oncogene protein (Homo sapiens) (UniProt P01106); assay: Inhibition of human ATG-Myc expressed in chicken embryo fibroblasts assessed as reduction in Myc-induced oncogenic transformation by measuring efficiency of oncogenic transformation
# c-Myc/Max (Homo sapiens) [4] = target: T1, c-Myc/Max (Homo sapiens); assay: Inhibition of MYC/MAX dimerization in human MDA-MB-231 cells assessed as increase in NDRG1 expression at 20 uM incubated for 24 hrs by Western blot analysis; format: cell-based
# c-Myc/Max (Homo sapiens) [5] = target: T1, c-Myc/Max (Homo sapiens); assay: Inhibition of MYC/MAX dimerization in human MDA-MB-231 cells assessed as reduction in Myc expression at 20 uM incubated for 24 hrs by Western blot analysis; format: cell-based
# Rous sarcoma virus = assay: Inhibition of Rous sarcoma virus v-SRC expressed in chicken embryo fibroblasts assessed as reduction in Myc-induced oncogenic transformation by measuring efficiency of oncogenic transformation up to 20 uM
# Avian sarcoma virus 17 = assay: Inhibition of Avian sarcoma virus 17 v-Jun expressed in chicken embryo fibroblasts assessed as reduction in Myc-induced oncogenic transformation by measuring efficiency of oncogenic transformation up to 20 uM
# Homo sapiens [6] = species: Homo sapiens; assay: Inhibition of PI3K H1047R mutant (unknown origin) expressed in chicken embryo fibroblasts assessed as reduction in Myc-induced oncogenic transformation by measuring efficiency of oncogenic transformation up to 20 uM
# NCI-H460 = assay: Antiproliferative activity against human NCI-H460 cells assessed as inhibition of cell proliferation at 10 to 40 uM incubated for 3 days by Cell-titer 96 Non-radioactive cell proliferation assay; format: functional, cell-based
# MDA-MB-231 [7] = assay: Antiproliferative activity against human MDA-MB-231 cells assessed as inhibition of cell proliferation at 10 to 40 uM incubated for 3 days by Cell-titer 96 Non-radioactive cell proliferation assay; format: functional, cell-based
# SUM-159-PT = assay: Antiproliferative activity against human SUM159PT cells assessed as inhibition of cell proliferation at 10 to 40 uM incubated for 3 days by Cell-titer 96 Non-radioactive cell proliferation assay; format: functional, cell-based
# Homo sapiens [8] = species: Homo sapiens; assay: Antiproliferative activity against human Akata cells assessed as inhibition of cell proliferation at 2.5 to 10 uM incubated for 72 hrs by resazurin dye based assay; format: functional
# Ramos = assay: Antiproliferative activity against human Ramos cells assessed as inhibition of cell proliferation at 2.5 to 10 uM incubated for 72 hrs by resazurin dye based assay; format: functional
# Raji = assay: Antiproliferative activity against human Raji cells assessed as inhibition of cell proliferation at 2.5 to 10 uM incubated for 72 hrs by resazurin dye based assay; format: functional
# Cotesia glomerata [9] = assay: Antiproliferative activity against v-myc-transformed primary QEF/MC29 cells assessed as inhibition of cell proliferation at 50 uM incubated for 3 days by Cell-titer 96 Non-radioactive cell proliferation assay; format: functional
# Cotesia glomerata [10] = assay: Antiproliferative activity against methylcholanthrene-transformed primary quail embryo fibroblasts assessed as inhibition of cell proliferation at 50 uM incubated for 3 days by Cell-titer 96 Non-radioactive cell proliferation assay; format: functional
# [11] = Antiproliferative activity against HSF assessed as inhibition of cell proliferation at 50 uM incubated for 3 days by Cell-titer 96 Non-radioactive cell proliferation assay; details: human, 72 h
# K562 = assay: Antiproliferative activity against human K562 cells assessed as inhibition of cell proliferation at 25 uM incubated for 3 days by Cell-titer 96 Non-radioactive cell proliferation assay; format: functional, cell-based
# MOLT-4 = assay: Antiproliferative activity against human MOLT4 cells assessed as inhibition of cell proliferation at 25 uM incubated for 3 days by Cell-titer 96 Non-radioactive cell proliferation assay; format: functional, cell-based
# HL-60 = assay: Antiproliferative activity against human HL60 cells assessed as inhibition of cell proliferation at 25 uM incubated for 3 days by Cell-titer 96 Non-radioactive cell proliferation assay; format: functional, cell-based
# SW480 = assay: Antiproliferative activity against human SW480 cells assessed as inhibition of cell proliferation at 50 uM incubated for 3 days by Cell-titer 96 Non-radioactive cell proliferation assay; format: functional, cell-based
# MDA-MB-231 [12] = assay: Effect on Myc expression in human MDA-MB-231 cells at 20 uM incubated for 24 hrs by Western blot analysis; format: functional, cell-based
# [13] = Acute toxicity in mouse at 10 mg/kg; format: organism-based; details: in vivo
# [14] = Acute toxicity in rat at 10 mg/kg; format: organism-based; details: in vivo
# MDA-MB-231 [15] = assay: Antitumor activity against human MDA-MB-231 cells xenografted in nude mouse assessed as reduction tumor volume at 10 mg/kg, ip dosed daily for 31 days; format: functional, organism-based
# MDA-MB-231 [16] = assay: Antitumor activity against human MDA-MB-231 cells xenografted in nude mouse assessed as reduction tumor weight at 10 mg/kg, ip dosed daily for 31 days; format: functional, organism-based
# [17] = Toxicity in nude mouse xenografted with human MDA-MB-231 cells assessed as effect on body weight at 10 mg/kg, ip dosed daily for 31 days; format: organism-based; details: in vivo, 744 h
# Mus musculus [18] = assay: Inhibition of Myc in nude mouse xenografted with human MDA-MB-231 cells assessed as increase in NDRG1 expression at 10 mg/kg, ip dosed daily for 31 days by Western blot analysis; format: functional, organism-based
# Mus musculus [19] = assay: Inhibition of Myc in nude mouse xenografted with human MDA-MB-231 cells assessed as increase in NDRG1 expression at 10 mg/kg, ip dosed daily for 31 days by immunofluorescent staining; format: functional, organism-based
# [20] = target: Myc proto-oncogene protein (Homo sapiens) (UniProt P01106); details: MDA-MB-231, 20 uM
# Description: Inhibition of Myc in human MDA-MB-231 cells assessed as increase in NDRG1 expression at 20 uM incubated for 24 hrs by Western blot analysis
# Myc proto-oncogene protein (Homo sapiens), sequence (P01106 whole entry): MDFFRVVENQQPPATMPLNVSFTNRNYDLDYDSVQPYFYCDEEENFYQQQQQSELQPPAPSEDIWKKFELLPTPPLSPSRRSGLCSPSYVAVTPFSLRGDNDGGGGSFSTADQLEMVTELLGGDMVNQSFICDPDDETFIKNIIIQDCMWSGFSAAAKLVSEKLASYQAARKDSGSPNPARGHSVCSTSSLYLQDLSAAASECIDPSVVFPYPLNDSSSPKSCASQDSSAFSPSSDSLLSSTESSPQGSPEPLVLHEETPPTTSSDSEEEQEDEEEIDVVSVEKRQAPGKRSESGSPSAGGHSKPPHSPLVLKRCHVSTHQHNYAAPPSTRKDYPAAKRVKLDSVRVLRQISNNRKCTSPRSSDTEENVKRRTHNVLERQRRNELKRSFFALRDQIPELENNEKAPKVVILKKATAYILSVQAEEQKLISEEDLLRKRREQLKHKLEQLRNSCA
compound,measurement,setting,value
NC(=O)c1ccc(-c2cc(-c3ccncc3)nc(-c3ccc([N+](=O)[O-])cc3)c2)cc1,inhibition,c-Myc/Max (Homo sapiens) [1],Active
same,inhibition,[2],100%
CS(=O)(=O)c1ccc(-c2cc(-c3ccc(C(N)=O)cc3)cc(-c3ccco3)n2)cc1,inhibition,c-Myc/Max (Homo sapiens) [1],inactive
same,inhibition,[2],inactive
NC(=O)c1ccc(-c2cc(-c3ccc([N+](=O)[O-])cc3)nc(-c3ccccc3Br)c2)cc1,inhibition,c-Myc/Max (Homo sapiens) [1],inactive
same,inhibition,[2],inactive
NC(=O)c1ccc(-c2cc(-c3ccc(OC(F)(F)F)cc3)nc(-c3ccco3)c2)cc1,inhibition,c-Myc/Max (Homo sapiens) [1],Active
same,inhibition,[2],Active
NC(=O)c1ccc(-c2cc(-c3ccc([N+](=O)[O-])cc3)nc(-c3ccc(Br)cn3)c2)cc1,inhibition,c-Myc/Max (Homo sapiens) [1],inactive
same,inhibition,[2],inactive
COC(=O)c1cccc(-c2cc(-c3ccc(C(N)=O)cc3)cc(-c3ccco3)n2)c1,inhibition,c-Myc/Max (Homo sapiens) [1],Active
same,inhibition,[3],Active
same,inhibition,[2],100%
COC(=O)c1ccc(-c2cc(-c3ccc(C(N)=O)cc3)cc(-c3ccco3)n2)cc1,inhibition,c-Myc/Max (Homo sapiens) [1],inactive
same,inhibition,[2],inactive
NC(=O)c1ccc(-c2cc(-c3ccc(Br)cc3)nc(-c3ccc([N+](=O)[O-])cc3)c2)cc1,inhibition,c-Myc/Max (Homo sapiens) [1],inactive
same,inhibition,[2],inactive
NC(=O)c1ccc(-c2cc(-c3ccc(SC(F)(F)F)cc3)nc(-c3ccco3)c2)cc1,inhibition,c-Myc/Max (Homo sapiens) [1],inactive
same,inhibition,[2],inactive
NC(=O)c1ccc(-c2cc(-c3ccc([N+](=O)[O-])cc3)nc(-c3cccc(Br)n3)c2)cc1,inhibition,c-Myc/Max (Homo sapiens) [1],inactive
same,inhibition,[2],inactive
CN1CCN(c2ccc(-c3cc(-c4ccc(C(N)=O)cc4)cc(-c4ccc([N+](=O)[O-])cc4)n3)cc2)CC1,inhibition,c-Myc/Max (Homo sapiens) [1],inactive
same,inhibition,[3],Active
N#Cc1ccc(-c2cc(-c3ccc(C(N)=O)cc3)cc(-c3ccco3)n2)cc1,inhibition,c-Myc/Max (Homo sapiens) [1],Active
same,inhibition,[3],Active
same,inhibition,[2],100%
NC(=O)c1ccc(-c2cc(-c3ccc([N+](=O)[O-])cc3)nc(-c3ccco3)c2)o1,inhibition,c-Myc/Max (Homo sapiens) [1],Active
same,inhibition,[2],Active
NC(=O)c1ccc(-c2cc(-c3ccc([N+](=O)[O-])cc3)nc(-c3ccccn3)c2)cc1,inhibition,c-Myc/Max (Homo sapiens) [1],inactive
same,inhibition,[2],inactive
NC(=O)c1ccc(-c2cc(-c3ccc(S(N)(=O)=O)cc3)nc(-c3ccco3)c2)cc1,inhibition,c-Myc/Max (Homo sapiens) [1],Active
CCc1ccc(/C=C2/SC(=S)NC2=O)cc1,inhibition,c-Myc/Max (Homo sapiens) [4],Active
same,inhibition,c-Myc/Max (Homo sapiens) [5],Active
NC(=O)c1ccc(-c2cc(-c3ccc(C(F)(F)F)cc3)nc(-c3ccco3)c2)cc1,inhibition,c-Myc/Max (Homo sapiens) [1],Active
same,inhibition,[2],Active
NC(=O)c1ccc(-c2cc(-c3ccc([N+](=O)[O-])cc3)nc(-c3ccco3)c2)cc1,inhibition,c-Myc/Max (Homo sapiens) [1],Active
same,inhibition,Rous sarcoma virus,inactive
same,inhibition,Avian sarcoma virus 17,Active
same,inhibition,Homo sapiens [6],Active
same,Activity,NCI-H460,Active
same,Activity,MDA-MB-231 [7],Active
same,Activity,SUM-159-PT,Active
same,Activity,Homo sapiens [8],Active
same,Activity,Ramos,Active
same,Activity,Raji,Active
same,Activity,Cotesia glomerata [9],Active
same,Activity,Cotesia glomerata [10],Active
same,Activity,[11],Non-Toxic
same,Activity,K562,Active
same,Activity,MOLT-4,Active
same,Activity,HL-60,Active
same,Activity,SW480,inactive
same,Activity,MDA-MB-231 [12],inactive
same,Activity,[13],Non-Toxic
same,Activity,[14],Non-Toxic
same,Activity,MDA-MB-231 [15],Active
same,Activity,MDA-MB-231 [16],Active
same,Activity,[17],Non-Toxic
same,inhibition,Mus musculus [18],Active
same,inhibition,Mus musculus [19],Active
same,inhibition,[3],Dose-dependent effect
same,inhibition,[2],100%
same,inhibition,[20],Active
